Tests used:
H3K9 acetylation = H3K9 acetylation Western blot in human NPCs and neurons; assay type: cell-based; conditions: ACY-1215 5 μM, tubastatin A 10 μM, CI-994 10 μM, Cpd-60 5 μM (Figure S1)
MSR293 cells = assay: GRN mRNA / PGRN expression in MSR293 cells; assay type: cell-based, human; conditions: MSR293 cells (HEK293 derivative), Figure S3
FXN mRNA = assay: FXN; assay type: cell-based, human; conditions: 18-day neurons, 24 h; SAHA 10 μM, CI-994 10 μM, Cpd-60 5 μM
[1] = tested on: recombinant human Class I HDACs (HDAC1, HDAC2, HDAC3); assay: In vitro HDAC enzymatic assay with varied pre-incubation time; assay type: biochemical; conditions: pre-incubation 0–3 hours, Figure S5
[2] = tested on: H3K27 acetylation on GRN promoter; assay: H3K27 acetylation ChIP-qPCR on GRN promoter/enhancer region in NPCs; assay type: cell-based, human; conditions: 24 hours, panobinostat 0.5 μM, CI-994 10 μM; for H3K27 acetylation in ChIP Region 3: to varying levels
[3] = 2010, cited from earlier work
PGRN protein = assay type: cell-based, human
HDAC = conditions: ref Schroeder et al., 2013; Chou et al., 2008; cited from earlier work
GRN mRNA = GRN mRNA expression by qPCR in human iPSC-derived NPCs and neurons; assay type: cell-based
[4] = human NPCs, CI-994 for up to 72 hours
[5] = human neurons, CI-994 10 μM, 24 h

In the case of `O=C(CCCCCCNC(=O)c1cnc(N(c2ccccc2)c2ccccc2)nc1)NO` [ACY-1215], the H3K9 acetylation (H3K9 acetylation) is reported as “as strong of an induction”.

In the case of `O=C(CCCCCCC(=O)Nc1ccccc1)NO` [SAHA], the “upregulating GRN mRNA or PGRN” value (MSR293 cells) is reported as “effective” and the “FXN (frataxin) mRNA levels” value (FXN mRNA) is reported as “does not”.

With `CN1CCc2c(c3ccccc3n2Cc2ccc(C(=O)NO)cc2)C1` [Tubastatin A] the H3K9 acetylation (H3K9 acetylation) was “robust effect”.

For `CCC(=O)CCCCC[C@@H]1NC(=O)[C@H]2CCCCN2C(=O)[C@H]([C@@H](C)CC)NC(=O)[C@H](Cc2cn(OC)c3ccccc23)NC1=O` [apicidin], the “change of potency with prolonged incubation (in vitro kinetic profile)” value (shortened to “change of potency”) [1] was “did not increase”.

In the case of `Cc1[nH]c2ccccc2c1CCNCc1ccc(/C=C/C(=O)NO)cc1` [panobinostat], the “H3K27 acetylation in ChIP Region 1 on the GRN promoter” value [2] is reported as “significantly increased”, the “H3K27 acetylation in ChIP Region 2” value [2] is reported as “Neither compound treatment increased” and the “H3K27 acetylation in ChIP Region 3” value [2] is reported as “increased”.

In the case of `CCCC(CCC)C(=O)O` [valproate, valproic acid], the “change of potency” value [1] is given as “did not increase”, the serum concentration ([3]; chronic treatment, ref Kalu) is given as 300 to 700 µM and the Cmax ([3]; read-out: brain concentration Cmax, estimated, ref Goldenberg) is given as 400 µM. The “increase of PGRN protein expression compared to vehicle” value (PGRN protein; cultured NPCs and neurons, valproate at doses lower than 1 mM (Figure S8)) was 1.3–1.5 ×.

For `CC(=O)Nc1ccc(C(=O)Nc2ccccc2N)cc1` [CI-994], the “binding kinetics, mechanism of action” value (HDAC) is listed as “slow-on/slow-off”, the “upregulating GRN mRNA or PGRN” value (MSR293 cells) is listed as “ineffective” and the “GRN mRNA levels, extended treatment” value (GRN mRNA; [4]) is listed as “did not significnatly enhance”. For the same compound, the “GRN mRNA” value (GRN mRNA; [5]) was “statistically significant decrease”, the “change of potency” value [1] was “slow-binder” and the “H3K27 acetylation in ChIP Region 2” value [2] was “Neither compound treatment increased”. The “H3K27 acetylation in ChIP Region 3” value [2] was “increased”, the “FXN (frataxin) mRNA levels” value (FXN mRNA) was “significantly increased” and the H3K9 acetylation (H3K9 acetylation) was “significantly increase”. For the same compound, the “intracellular PGRN” value (PGRN protein; NPCs, CI-994 10 μM, 24 h) was “decrease”, the “secreted PGRN” value (PGRN protein; NPCs, CI-994 10 μM, 24 h) was “decrease” and the “PGRN secreted protein expression, longer treatment times” value (PGRN protein; NPCs, CI-994 10 μM, longer treatment times, vs vehicle) was “decreased”. The “PGRN protein levels, extended treatment” value (PGRN protein; [4]) was “did not significnatly enhance” and the “intracellular PGRN protein” value (PGRN protein; [5]) was “statistically significant decrease”.

In the case of `O=C(NCC1(c2nc(-c3ccccc3)cs2)CCOCC1)c1cccc(-c2noc(C(F)(F)F)n2)c1` [TMP269], the “increasing GRN mRNA in NPCs” value (GRN mRNA; NPCs only (Figure S2)) is reported as “not effective”.
